Reference: DBAASP
≈ marks a conversion by molar mass, not a printed value. Where “and” joins values, the source holds several entries; their conditions need not be identical. Identical values can stand only once. Each block holds one compound with its values, some of them ahead of it.

What was measured:
Assay in all cases: ≥ marks a high value that may be exact or a test limit, other limits are often not marked, values filed in µg/mL are converted to µM
[1] = tested on: Leishmania major MHOM/IL/67/JERICHO-II
[2] = tested on: Staphylococcus aureus Cowan 1
Escherichia coli HB101 = tested on: Escherichia coli HB101
[3] = tested on: Salmonella enterica subsp. enterica serovar Typhi Vi+
[4] = tested on: Escherichia coli ATCC 25922
[5] = tested on: Escherichia coli ATCC 11775
[6] = tested on: Salmonella enterica subsp. enterica serovar Typhimurium ATCC 14028
[7] = tested on: Escherichia coli ATCC 35218
Saccharomyces cerevisiae = tested on: Saccharomyces cerevisiae
Staphylococcus aureus = tested on: Staphylococcus aureus
Bacillus subtilis = tested on: Bacillus subtilis
Proteus vulgaris = tested on: Proteus vulgaris
[8] = tested on: Staphylococcus aureus ATCC 25923
Pseudomonas aeruginosa = tested on: Pseudomonas aeruginosa
[9] = tested on: Listeria monocytogenes KCTC 3710
Botrytis cinerea = tested on: Botrytis cinerea
[10] = tested on: Bacillus subtilis KCTC 1998
[11] = tested on: Aspergillus fumigatus KCTC 6145
Trichosporon beigelii = tested on: Trichosporon beigelii
Fusarium verticillioides = tested on: Fusarium verticillioides
[12] = tested on: Staphylococcus epidermidis
Salmonella typhimurium = tested on: Salmonella typhimurium
[13] = tested on: Escherichia coli O157:H7 ATCC 43895
[14] = tested on: Pseudomonas aeruginosa ATCC 15692
[15] = tested on: Candida albicans KCTC 7270
[16] = tested on: Aspergillus flavus KCTC 9471
Escherichia coli = tested on: Escherichia coli
Vibrio harveyi = tested on: Vibrio harveyi
Vibrio parahaemolyticus = tested on: Vibrio parahaemolyticus
Aeromonas hydrophila = tested on: Aeromonas hydrophila
Bacillus cereus C737 = tested on: Bacillus cereus C737
[17] = tested on: Pseudomonas aeruginosa PAO1
Escherichia coli UB1005 = tested on: Escherichia coli UB1005

MIC [1]: 17.9 µM (≈ 37.5 µg/mL)
MIC [2]: ≥ 35.9 µM
MIC (Escherichia coli HB101): 3.6 µM (≈ 7.55 µg/mL)
SMILES: CSCC[C@H](NC(=O)[C@@H](NC(=O)CNC(=O)[C@H](CC(C)C)NC(=O)[C@H](CCCCN)NC(=O)[C@H](CCCCN)NC(=O)[C@H](CC(C)C)NC(=O)[C@H](CCSC)NC(=O)[C@@H](NC(=O)[C@H](CCCCN)NC(=O)[C@H](Cc1c[nH]c2ccccc12)NC(=O)[C@H](CC(C)C)NC(=O)[C@H](C)N)[C@@H](C)O)[C@@H](C)O)C(=O)N[C@@H](C)C(=O)N[C@@H](CC(C)C)C(=O)N[C@@H](Cc1cnc[nH]1)C(=O)N[C@@H](C)C(=O)NCC(=O)N[C@@H](CCCCN)C(N)=O [ALWKTMLKKLGTMALHAGK]

MIC [3]: 30 µM (≈ 65.1 µg/mL)
MIC [4]: 7 µM (≈ 15.2 µg/mL)
MIC [5]: 6 µM (≈ 13 µg/mL)
MIC [6]: 25 µM (≈ 54.3 µg/mL)
MIC [7]: 3.5 µM (≈ 7.6 µg/mL)
SMILES: CC[C@H](C)[C@H](NC(=O)[C@@H]1CCCN1C(=O)[C@H](CCCCN)NC(=O)[C@@H]1CCCN1C(=O)[C@H](Cc1cnc[nH]1)NC(=O)[C@H](CO)NC(=O)[C@@H](NC(=O)[C@@H]1CCCN1C(=O)[C@H](CCCN=C(N)N)NC(=O)[C@@H]1CCCN1C(=O)[C@H](CO)NC(=O)[C@H](Cc1ccc(O)cc1)NC(=O)[C@@H]1CCCN1C(=O)[C@H](CCCN=C(N)N)NC(=O)[C@@H]1CCCN1C(=O)[C@H](CCCCN)NC(=O)CN)[C@@H](C)O)C(=O)N[C@@H](CCCN=C(N)N)C(=O)N[C@H](C(=O)O)C(C)C [GKPRPYSPRPTSHPKPIRV]

SMILES: CC[C@H](C)[C@H](NC(=O)[C@H](CCCCN)NC(=O)[C@H](CO)NC(=O)[C@H](Cc1ccccc1)NC(=O)[C@H](CC(C)C)NC(=O)[C@H](CCCCN)NC(=O)[C@H](CCC(=O)O)NC(=O)[C@H](CC(C)C)NC(=O)[C@H](CCCN=C(N)N)NC(=O)[C@H](CCCCN)NC(=O)[C@H](Cc1ccccc1)NC(=O)[C@@H](NC(=O)[C@H](CCCCN)NC(=O)[C@H](CCCCN)NC(=O)[C@H](C)N)C(C)C)C(=O)N[C@@H](Cc1c[nH]c2ccccc12)C(=O)N[C@@H](CC(N)=O)C(=O)N[C@@H](Cc1c[nH]c2ccccc12)C(=O)N[C@@H](CCCCN)C(N)=O [AKKVFKRLEKLFSKIWNWK]
MIC (Saccharomyces cerevisiae): 25 µM (≈ 61.2 µg/mL)
MIC (Staphylococcus aureus): 1.56 µM and 3.13 µM
MIC (Bacillus subtilis): 1.56 µM (≈ 3.82 µg/mL)
MIC [4]: 2 µM (≈ 4.9 µg/mL)
MIC (Proteus vulgaris): 3.13 µM (≈ 7.67 µg/mL)
MIC [8]: 2 µM (≈ 4.9 µg/mL)
MIC (Pseudomonas aeruginosa): 3.13 µM (≈ 7.67 µg/mL)
MIC [9]: 0.39 µM (≈ 0.955 µg/mL)
MIC (Botrytis cinerea): 3.13 µM (≈ 7.67 µg/mL)
MIC [10]: 2 µM (≈ 4.9 µg/mL)
MIC [11]: 25 µM (≈ 61.2 µg/mL)
MIC (Trichosporon beigelii): 1.56 µM (≈ 3.82 µg/mL)
MIC (Fusarium verticillioides): 12.5 µM (≈ 30.6 µg/mL)
MIC [12]: 3.13 µM (≈ 7.67 µg/mL)
MIC (Salmonella typhimurium): 0.39 µM (≈ 0.955 µg/mL)
MIC [13]: 3.13 µM (≈ 7.67 µg/mL)
MIC [14]: 2 µM (≈ 4.9 µg/mL)
MIC [15]: 12.5 µM (≈ 30.6 µg/mL)
MIC [16]: 25 µM (≈ 61.2 µg/mL)
MIC (Escherichia coli): 1.56 µM (≈ 3.82 µg/mL)

MIC (Staphylococcus aureus): 17 µM (≈ 41 µg/mL)
MIC (Bacillus subtilis): ≥ 96 µM
MIC (Vibrio harveyi): ≥ 96 µM
MIC (Aeromonas hydrophila): ≥ 96 µM
MIC (Escherichia coli): 33.9 µM (≈ 82 µg/mL)
SMILES: CC[C@H](C)[C@H](NC(=O)[C@H](CCC(=O)O)NC(=O)[C@H](CC(N)=O)NC(=O)[C@H](CS)NC(=O)[C@@H](N)C(C)C)C(=O)NCC(=O)N[C@@H](CC(C)C)C(=O)N[C@@H](CC(C)C)C(=O)N[C@@H](CCCCN)C(=O)N[C@@H](CO)C(=O)N[C@@H](CC(C)C)C(=O)N[C@@H](CS)C(=O)N[C@@H](CCCCN)C(=O)N[C@@H](CCCCN)C(=O)N[C@@H](Cc1ccccc1)C(=O)N[C@H](C(=O)N[C@@H](CCCCN)C(=O)NCC(=O)N[C@@H](Cc1cnc[nH]1)C(=O)N[C@@H](CC(C)C)C(=O)NCC(=O)N[C@@H](CCC(=O)O)C(=O)O)C(C)C [VCNEIGLLKSLCKKFVKGHLGE]
MIC (Vibrio parahaemolyticus): ≥ 96 µM

MIC (Bacillus cereus C737): ≥ 81.3 µM
MIC [17]: > 81.3 µM
MIC (Escherichia coli UB1005): ≥ 81.3 µM
SMILES: CC[C@H](C)[C@H](NC(=O)[C@H](CC(=O)O)NC(=O)[C@H](Cc1ccccc1)NC(=O)[C@H](CC(C)C)NC(=O)CN)C(=O)N[C@H](C(=O)N[C@@H](CCCCN)C(=O)N[C@@H](CCCCN)C(=O)N[C@H](C(=O)N[C@H](C(=O)NCC(=O)N[C@@H](C)C(=O)N[C@@H](C)C(=O)NCC(=O)N[C@@H](CO)C(=O)N[C@@H](CC(C)C)C(N)=O)C(C)C)C(C)C)C(C)C [GLFDIVKKVVGAAGSL]

SMILES: CC[C@H](C)[C@H](NC(=O)[C@H](CCCCN)NC(=O)[C@H](CO)NC(=O)[C@H](Cc1ccccc1)NC(=O)[C@H](CC(C)C)NC(=O)[C@H](CCCCN)NC(=O)[C@H](CCC(=O)O)NC(=O)[C@H](CC(C)C)NC(=O)[C@H](CCCN=C(N)N)NC(=O)[C@H](CCCCN)NC(=O)[C@H](Cc1ccccc1)NC(=O)[C@@H](NC(=O)[C@H](CCCCN)NC(=O)[C@H](CCCCN)NC(=O)[C@H](C)N)C(C)C)C(=O)N[C@@H](Cc1c[nH]c2ccccc12)C(=O)N[C@@H](CC(N)=O)C(=O)N[C@@H](CC(=O)O)C(=O)N[C@@H](CCCCN)C(N)=O [AKKVFKRLEKLFSKIWNDK]
MIC (Saccharomyces cerevisiae): 25 µM (≈ 59.4 µg/mL)
MIC (Staphylococcus aureus): 6.25 µM (≈ 14.9 µg/mL)
MIC (Bacillus subtilis): 1.56 µM (≈ 3.71 µg/mL)
MIC (Proteus vulgaris): 3.13 µM (≈ 7.44 µg/mL)
MIC (Pseudomonas aeruginosa): 6.25 µM (≈ 14.9 µg/mL)
MIC [9]: 1.56 µM (≈ 3.71 µg/mL)
MIC (Botrytis cinerea): 6.25 µM (≈ 14.9 µg/mL)
MIC [11]: ≥ 50 µM
MIC (Trichosporon beigelii): 1.56 µM (≈ 3.71 µg/mL)
MIC (Fusarium verticillioides): 25 µM (≈ 59.4 µg/mL)
MIC [12]: 3.13 µM (≈ 7.44 µg/mL)
MIC (Salmonella typhimurium): 0.78 µM (≈ 1.85 µg/mL)
MIC [13]: 6.25 µM (≈ 14.9 µg/mL)
MIC [15]: 25 µM (≈ 59.4 µg/mL)
MIC [16]: ≥ 50 µM
MIC (Escherichia coli): 3.13 µM (≈ 7.44 µg/mL)

MIC [1]: 6.1 µM (≈ 18 µg/mL)
MIC [2]: 2.7 µM (≈ 7.97 µg/mL)
MIC (Escherichia coli HB101): 2.7 µM (≈ 7.97 µg/mL)
SMILES: CC[C@H](C)[C@H](NC(=O)[C@@H](NC(=O)[C@H](CC(=O)O)NC(=O)[C@H](C)NC(=O)[C@H](C)NC(=O)[C@H](C)NC(=O)CNC(=O)[C@H](CC(C)C)NC(=O)[C@H](C)NC(=O)[C@H](C)NC(=O)[C@H](CCCCN)NC(=O)CNC(=O)[C@H](C)NC(=O)[C@H](Cc1cnc[nH]1)NC(=O)[C@H](CC(C)C)NC(=O)[C@H](C)NC(=O)[C@H](CCSC)NC(=O)[C@@H](NC(=O)CNC(=O)[C@H](CC(C)C)NC(=O)[C@H](CCCCN)NC(=O)[C@H](CCCCN)NC(=O)[C@H](CC(C)C)NC(=O)[C@H](CCSC)NC(=O)[C@@H](NC(=O)[C@H](CCCCN)NC(=O)[C@H](Cc1c[nH]c2ccccc12)NC(=O)[C@H](CC(C)C)NC(=O)[C@H](C)N)[C@@H](C)O)[C@@H](C)O)[C@@H](C)O)C(N)=O [ALWKTMLKKLGTMALHAGKAALGAAADTI]

MIC (Staphylococcus aureus): 17 µM (≈ 50.5 µg/mL)
MIC (Bacillus subtilis): ≥ 33.9 µM
MIC (Vibrio harveyi): 17 µM (≈ 50.5 µg/mL)
MIC (Aeromonas hydrophila): ≥ 96 µM
MIC (Escherichia coli): 17 µM (≈ 50.5 µg/mL)
SMILES: CC[C@H](C)[C@H](NC(=O)[C@H](CC(C)C)NC(=O)[C@H](CCC(=O)O)NC(=O)CNC(=O)[C@H](CC(C)C)NC(=O)[C@H](Cc1cnc[nH]1)NC(=O)CNC(=O)[C@H](CCCCN)NC(=O)[C@@H](NC(=O)[C@H](Cc1ccccc1)NC(=O)[C@H](CCCCN)NC(=O)[C@H](CCCCN)NC(=O)[C@H](CS)NC(=O)[C@H](CC(C)C)NC(=O)[C@H](CO)NC(=O)[C@H](CCCCN)NC(=O)[C@H](CC(C)C)NC(=O)[C@H](CC(C)C)NC(=O)CN)C(C)C)C(=O)N[C@@H](CCC(=O)O)C(=O)N[C@@H](CCC(=O)O)C(=O)N[C@@H](CC(C)C)C(=O)N[C@H](C(=O)N[C@H](C(=O)N[C@@H](CO)C(=O)N[C@@H](CC(=O)O)C(=O)N[C@@H](CC(=O)O)C(=O)O)[C@@H](C)O)[C@@H](C)O [GLLKSLCKKFVKGHLGELIEELTTSDD]
MIC (Vibrio parahaemolyticus): ≥ 96 µM
